Test [1] concerns the target GDP-bound NRAS wild-type protein (Homo sapiens, UniProt P01111). The experiment in a line: Binding to NRAS by surface plasmon resonance (SPR), Single Cycle Kinetics. A general note: Surface plasmon resonance follows binding to a sensor surface in real time, without labels.
For test [2], the target named is GDP-bound HRAS wild-type protein (Homo sapiens, UniProt P01112). Briefly: Binding to HRAS by surface plasmon resonance (SPR), Single Cycle Kinetics.
[3] abbreviates: KD ratio, GDP-bound NRAS wild-type vs GDP-bound KRAS wild-type, SPR.
[4] abbreviates: KD ratio, GDP-bound HRAS wild-type vs GDP-bound KRAS wild-type, SPR.

Where a SMILES comes first, the peptide text is derived from it. Bridges are numbered along the chain shown (N, C = ends). [ ]: non-standard residue; d: D form. The star is where a group is joined. hPhe(3-Cl-4-CF3) = N[C@@H](CCc1ccc(C(F)(F)F)c(Cl)c1)C(=O)O; NPrPhe(4-CF3) = CCCN[C@@H](Cc1ccc(C(F)(F)F)cc1)C(=O)O; NMeAbu(4,4,4-F3) = CN[C@@H](CC(F)(F)F)C(=O)O; NMeGly(cPent) = CN[C@H](C(=O)O)C1CCCC1; Pro(4,4-F2) = O=C(O)[C@@H]1CC(F)(F)CN1; NMeD = CN[C@@H](CC(=O)O)C(=O)O; NMeNva = CCC[C@H](NC)C(=O)O; Morpholide = C1CN(*)CCO1; NMeA = CN[C@@H](C)C(=O)O; Ac5c = NC1(C(=O)O)CCCC1; Aze = O=C(O)[C@@H]1CCN1; Sar = CNCC(=O)O

GDP-bound NRAS wild-type protein, sequence (P01111 whole entry): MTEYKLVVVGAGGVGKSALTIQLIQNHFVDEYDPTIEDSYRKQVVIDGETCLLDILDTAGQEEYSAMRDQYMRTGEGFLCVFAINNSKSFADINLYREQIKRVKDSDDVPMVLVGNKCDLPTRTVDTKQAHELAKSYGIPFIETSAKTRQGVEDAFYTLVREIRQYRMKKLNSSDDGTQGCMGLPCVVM
GDP-bound HRAS wild-type protein, sequence (P01112 whole entry): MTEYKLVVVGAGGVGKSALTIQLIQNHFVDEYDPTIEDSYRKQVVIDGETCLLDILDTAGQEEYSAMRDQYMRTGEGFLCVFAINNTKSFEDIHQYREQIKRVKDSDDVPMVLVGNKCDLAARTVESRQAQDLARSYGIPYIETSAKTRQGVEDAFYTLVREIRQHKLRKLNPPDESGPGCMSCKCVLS

`CC[C@H](C)[C@@H]1NC(=O)[C@H](CC)N(C)C(=O)C[C@@H](C(=O)N(C)C)N(C)C(=O)[C@H](C2CCCC2)N(C)C(=O)C2(CCC2)NC(=O)[C@@H]2CCN2C(=O)[C@H](CCc2cc(F)c(C(F)(F)F)c(F)c2)NC(=O)CN(C)C(=O)[C@H](Cc2ccc(C(F)(F)F)cc2)N2CCCCC[C@@H](C2=O)N(C)C(=O)CN(C)C1=O` [PP0654]: the “NRAS/KRAS (ratio of KD value with respect to GDP-bound NRAS wild-type protein to KD value with respect to KRAS)” value in test [1] (SPR) was “B (a compound having 3 or more and less than 10 is denoted as B)”. The “HRAS/KRAS (ratio of KD value with respect to GDP-bound HRAS wild-type protein to KD value with respect to KRAS)” value in test [2] (SPR) is “B (a compound having 3 or more and less than 10 is denoted as B)”.
Take `CCCN1C(=O)[C@@H]2CCN2C(=O)[C@H](C)N(C)C(=O)[C@H]([C@@H](C)CC)NC(=O)[C@H](CC(F)(F)F)N(C)C(=O)C[C@@H](C(=O)N2CCOCC2)N(C)C(=O)[C@H](C2CCCC2)N(C)C(=O)C2(CCCC2)NC(=O)[C@@H]2CC(F)(F)CN2C(=O)[C@H](CCc2ccc(C(F)(F)F)c(Cl)c2)NC(=O)CN(C)C(=O)[C@@H]1Cc1ccc(C(F)(F)F)cc1` [PP0203] ([NMeAbu(4,4,4-F3)]I[NMeA][Aze][NPrPhe(4-CF3)][Sar][hPhe(3-Cl-4-CF3)][Pro(4,4-F2)][Ac5c][NMeGly(cPent)][NMeD]-Morpholide; lactam N-11): the “NRAS/KRAS (ratio of KD for GDP-bound NRAS wild-type to KD for KRAS)” value in test [1] (SPR) was “C (A compound having a KD ratio of 0.1 or more and less than 3 is denoted as C)”. The “HRAS/KRAS (ratio of KD for GDP-bound HRAS wild-type to KD for KRAS)” value in test [2] (SPR) was “C (A compound having a KD ratio of 0.1 or more and less than 3 is denoted as C)”.
Take `CCO[C@@H]1C[C@H]2C(=O)N(C)C3(CC(C)(C)C3)C(=O)N(C)[C@@H](C(CC)CC)C(=O)N(C)[C@H](C(=O)N(C)C)CC(=O)N(C)[C@@H](COC)C(=O)N[C@@H]([C@@H](C)CC)C(=O)N(C)CC(=O)N(C)[C@H]3C/C=C\CCN(C3=O)[C@@H](Cc3ccc(C)cc3)C(=O)N(C)CC(=O)N[C@@H](CCc3ccc(Cl)c(Cl)c3)C(=O)N2C1` [PP2810]: the “NRAS/KRAS (ratio of KD value with respect to GDP-bound NRAS wild-type protein to KD value with respect to KRAS)” value in test [1] (class symbols) is recorded as “AA (a compound having 20 or more is denoted as AA)”. For the same compound, in test [2] (class symbols), the “HRAS/KRAS (ratio of KD value with respect to GDP-bound HRAS wild-type protein to KD value with respect to KRAS)” value is “A (a compound having 10 or more and less than 20 is denoted as A)”.
For the compound `CCOC[C@H]1C(=O)N[C@@H]([C@@H](C)CC)C(=O)N(C)CC(=O)N(C)[C@H]2C/C=C\CCN(C2=O)[C@@H](Cc2ccc(C(F)(F)F)cc2)C(=O)N(C)CC(=O)N[C@@H](CCc2ccc(C(F)(F)F)c(OC)c2)C(=O)N2C[C@H](OCC)C[C@H]2C(=O)NC2(CC(C)(C)C2)C(=O)N(C)[C@@H](C2CCCC2)C(=O)N(C)[C@H](C(=O)N(C)CC)CC(=O)N1C` [PP2014], the “NRAS/KRAS (ratio of KD value for NRAS to KD value for KRAS)” value in test [1] (setting [3]) is “A (a compound having 10 or more and less than 20 is denoted as A)”. Moreover, the “HRAS/KRAS (ratio of KD value for HRAS to KD value for KRAS)” value in test [2] (setting [4]) was “A (a compound having 10 or more and less than 20 is denoted as A)”.
For `CCO[C@@H]1C[C@H]2C(=O)NC3(CC(F)(F)C3)C(=O)N(C)[C@@H](C(CC)CC)C(=O)N3CCC[C@@H]3CC(=O)N(C)[C@@H](CC)C(=O)N[C@@H]([C@@H](C)CC)C(=O)N(C)CC(=O)N(C)[C@H]3C/C=C\CCN(C3=O)[C@@H](Cc3ccc(C(F)(F)F)cc3)C(=O)N(C)CC(=O)N[C@@H](CCc3cc(F)c(C(F)(F)F)c(F)c3)C(=O)N2C1` [PP1608], the “NRAS/KRAS (ratio of KD value for NRAS to KD value for KRAS)” value in test [1] (setting [3]) was “A (a compound having 10 or more and less than 20 is denoted as A)”. Also, in test [2] (setting [4]), the “HRAS/KRAS (ratio of KD value for HRAS to KD value for KRAS)” value was “A (a compound having 10 or more and less than 20 is denoted as A)”.
For `CCO[C@@H]1C[C@H]2C(=O)NC3(CCC3)C(=O)N(C)[C@@H](C3CCCC3)C(=O)N(C)[C@H](C(=O)N(C)C)CC(=O)N(C)[C@@H](COC)C(=O)N[C@@H]([C@@H](C)CC)C(=O)NCC(=O)N(C)[C@H]3CCCCCN(C3=O)[C@@H](Cc3ccc(C(F)(F)F)cc3)C(=O)N(C)CC(=O)N[C@@H](CCc3cc(F)c(C(F)(F)F)c(F)c3)C(=O)N2C1` [PP0859], in test [1] (setting [3]), the “NRAS/KRAS (ratio of KD value with respect to NRAS to KD value with respect to KRAS)” value was “B (a compound having 3 or more and less than 10 is denoted as B)”. The “HRAS/KRAS (ratio of KD value with respect to HRAS to KD value with respect to KRAS)” value in test [2] (setting [4]) was “B (a compound having 3 or more and less than 10 is denoted as B)”.
For `CCC[C@H]1C(=O)N[C@@H]([C@@H](C)CC)C(=O)N(C)CC(=O)N(C)CC(=O)N(CCC)[C@@H](Cc2ccc(C(F)(F)F)cc2)C(=O)N(C)CC(=O)N[C@@H](CCc2ccc(C(F)(F)F)c(Cl)c2)C(=O)N2CC(F)(F)C[C@H]2C(=O)NC2(CCCC2)C(=O)N(C)[C@@H](C2CCCC2)C(=O)N(C)[C@H](C(=O)N2CCOCC2)CC(=O)N1C` [PP0201] ([NMeNva]I[Sar][Sar][NPrPhe(4-CF3)][Sar][hPhe(3-Cl-4-CF3)][Pro(4,4-F2)][Ac5c][NMeGly(cPent)][NMeD]-Morpholide; lactam N-11), in test [1] (SPR), the “NRAS/KRAS (ratio of KD for GDP-bound NRAS wild-type to KD for KRAS)” value is “B (a compound having 3 or more and less than 10 is denoted as B)”. In addition, the “HRAS/KRAS (ratio of KD for GDP-bound HRAS wild-type to KD for KRAS)” value in test [2] (SPR) is “C (A compound having a KD ratio of 0.1 or more and less than 3 is denoted as C)”.

Values taken from patent US20250230193A1, “CYCLIC COMPOUND HAVING SELECTIVE KRAS INHIBITORY EFFECT ON HRAS AND NRAS” (CHUGAI SEIYAKU KABUSHIKI KAISHA, priority 2022, published 2025).
